These results are taken from patent US20100081668A1, “POLYMORPHS OF 5--6-CHLORO-1,3-DIHYDRO-2H-INDOL-2-ONE HYDROBROMIDE AND PROCESSES FOR PREPARATION THEREOF” (priority 2006, published 2010).

The structures appear in SMILES notation. Counter-ions that a name gives are not always drawn. Like-named read-outs stand apart in the source and are kept apart here.

The nature of series [1]: Exposure of samples to 100% relative humidity at room temperature. In kind it is physicochemical. From the text: The Ziprasidone-hydrobromide Form III (hemihydrate) sample was also stable in these circumstances.
Series [2] is described as follows: Thermogravimetric (TG) and differential scanning calorimetric (DSC) investigation during heating. In kind it is physicochemical. From the text: The Ziprasidone-hydrobromide Form III (hemihydrate) sample was also stable in these circumstances. Thermogravimetry (TG) Parameters: [table] Differential Scanning Calorimetry (DSC) Parameters: [table]
For orientation: Differential scanning calorimetry records heat flow against a reference as temperature is scanned.

Series [3] can be described thus: Stability and water uptake from air at normal humidity. Format: physicochemical. Particulars: normal circumstances. The text has this:
During our experimental work we prepared different ziprasidone hydrobromide compounds and forms. […] In suitable circumstances both the anhydrate and the monohydrate of ziprasidone hydrobromide can be prepared in stable forms, at normal humidity these products can easily be handled, meanwhile their water and active ingredient contents remain constant. The hemihydrate of ziprasidone hydrobromide can also be prepared reproducibly.
1.69 g crystalline 5-{2-[4-(1,2-benzisothiazol-3-yl)-1-piperazinyl]-ethyl}-6-chloro-1,3-dihydro-2H-indol-2-one-hydrobromide anhydrate (ziprasidone-hydrobromide anhydrate) in a form of Ziprasidone-hydrobromide Form II was obtained.

For series [4] the following is noted: 31% relative humidity, after 4 hours; starting water content 0.19%; cited from earlier work.

For `O=C1Cc2cc(CCN3CCN(c4nsc5ccccc45)CC3)c(Cl)cc2N1` [Ziprasidone-hydrobromide Form I, 5-{2-[4-(1,2-benzisothiazol-3-yl)-1-piperazinyl]-ethyl}-6-chloro-1,3-dihydro-2H-indol-2-one-hydrobromide monohydrate], in series [1] (monohydrate), the “stability / change of water content in 100% relative humidity area” value was “does not change significantly”. Moreover, the “temperature at which water is lost during heating” value in series [2] (TG and DSC, during heating) was 40-60 °C. The “re-uptake of water after the heat-effect” value in series [2] (after heating, transforms back to monohydrate of the original crystal structure) was “readily takes back the water”.
Take `O=C1Cc2cc(CCN3CCN(c4nsc5ccccc45)CC3)c(Cl)cc2N1` [Ziprasidone-hydrobromide Form II, 5-{2-[4-(1,2-benzisothiazol-3-yl)-1-piperazinyl]-ethyl}-6-chloro-1,3-dihydro-2H-indol-2-one-hydrobromide anhydrate]: the “water absorption from air” value in series [3] was “does not absorb water from the air”. Also, the “stability / change of water content in 100% relative humidity area” value in series [1] is “does not change significantly”.
Take `O=C1Cc2cc(CCN3CCN(c4nsc5ccccc45)CC3)c(Cl)cc2N1` [Ziprasidone-hydrobromide Form III, 5-{2-[4-(1,2-benzisothiazol-3-yl)-1-piperazinyl]-ethyl}-6-chloro-1,3-dihydro-2H-indol-2-one-hydrobromide hemihydrate]: the “stability / change of water content in 100% relative humidity area” value in series [1] (hemihydrate) was “stable”.
As to `Cl.O=C1Cc2cc(CCN3CCN(c4nsc5ccccc45)CC3)c(Cl)cc2N1` [ziprasidone hydrochloride anhydrate, reference compound], the “water absorption from air” value in series [3] was “adsorbed water rapidly from air”. Further, the “water content after exposure to humid air” value in series [4] is 2.55%.
